Laboratory results taken from ChEMBL document CHEMBL1201862, “PubChem BioAssay data set” (2004).
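Assay format: 96-well plates, 48-hour exposure. GI50: concentration for 50% inhibition of growth.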 The source made the active and inactive calls. Cut-off read from the data, not from the text of the source: active = GI50 up to about 1.1 µM and inactive = higher.

What was measured:
Assay in all cases: DTP human tumour cell line panel, 48 h
A498 = tested on: A498
A549 = tested on: A549
CAKI-1 = tested on: CAKI-1
CCRF-CEM = tested on: CCRF-CEM
COLO 205 = tested on: COLO 205
EKVX = tested on: EKVX
HCC 2998 = tested on: HCC 2998
HL-60 = tested on: HL-60
KM12 = tested on: KM12
MCF7 = tested on: MCF7
OVCAR-4 = tested on: OVCAR-4
PC-3 = tested on: PC-3
SK-MEL-2 = tested on: SK-MEL-2
SNB-75 = tested on: SNB-75
SR = tested on: SR
TK-10 = tested on: TK-10
UACC-257 = tested on: UACC-257
UACC-62 = tested on: UACC-62
HOP-62 = tested on: HOP-62
OVCAR-5 = tested on: OVCAR-5

`Cc1cc([C@H](C#N)c2nc3ccccc3[nH]2)nc(Cl)n1` was tested, and the GI50 (A498) was 41.8 µM (inactive), the GI50 (A549) was 33.9 µM (inactive) and the GI50 (CAKI-1) was 98.4 µM (inactive). For the same molecule, the GI50 (CCRF-CEM) was 30.8 µM (inactive), the GI50 (COLO 205) was 42.1 µM (inactive) and the GI50 (EKVX) was 62.2 µM (inactive). For the same molecule, the GI50 (HCC 2998) was 20.3 µM (inactive), the GI50 (HL-60) was 19.2 µM (inactive) and the GI50 (KM12) was 14.9 µM (inactive). For the same molecule, the GI50 (MCF7) was 41.8 µM (inactive), the GI50 (OVCAR-4) was 40.4 µM (inactive) and the GI50 (PC-3) was 30.9 µM (inactive). The GI50 (SK-MEL-2) was 26.5 µM (inactive), the GI50 (SNB-75) was 31 µM (inactive) and the GI50 (SR) was 54.8 µM (inactive). For the same molecule, the GI50 (TK-10) was 61.1 µM (inactive), the GI50 (UACC-257) was 26.5 µM (inactive) and the GI50 (UACC-62) was 22.3 µM (inactive).

For `CCC(/C=C/c1ccccc1)=N\NC(=S)N/N=C(/C=C/c1ccccc1)CC`, the GI50 (A498) was 20.8 µM (inactive), the GI50 (A549) was 17.2 µM (inactive) and the GI50 (CAKI-1) was > 100 µM (inactive). For the same molecule, the GI50 (CCRF-CEM) was 7.55 µM (inactive), the GI50 (COLO 205) was 30.8 µM (inactive) and the GI50 (EKVX) was > 100 µM (inactive). The GI50 (HCC 2998) was 84.1 µM (inactive), the GI50 (HL-60) was 19.6 µM (inactive) and the GI50 (HOP-62) was > 100 µM (inactive). For the same molecule, the GI50 (KM12) was 31.8 µM (inactive), the GI50 (MCF7) was 41.8 µM (inactive) and the GI50 (OVCAR-4) was 35.2 µM (inactive). The GI50 (PC-3) was 72.9 µM (inactive), the GI50 (SNB-75) was > 100 µM (inactive) and the GI50 (SR) was 16.9 µM (inactive). For the same molecule, the GI50 (TK-10) was > 100 µM (inactive), the GI50 (UACC-257) was 39.6 µM (inactive) and the GI50 (UACC-62) was 54.8 µM (inactive).

For `OC(C1CCC=NN1C(O)(C(F)(F)F)C(F)(F)F)(C(F)(F)F)C(F)(F)F` (centres undefined), the GI50 (A498) was > 10 µM (inactive), the GI50 (A549) was > 10 µM (inactive) and the GI50 (CAKI-1) was > 10 µM (inactive). For the same molecule, the GI50 (CCRF-CEM) was > 10 µM (inactive), the GI50 (COLO 205) was > 10 µM (inactive) and the GI50 (EKVX) was > 10 µM (inactive). The GI50 (HCC 2998) was > 10 µM (inactive), the GI50 (HOP-62) was > 10 µM (inactive) and the GI50 (KM12) was > 10 µM (inactive). The GI50 (MCF7) was > 10 µM (inactive), the GI50 (OVCAR-4) was > 10 µM (inactive) and the GI50 (OVCAR-5) was > 10 µM (inactive). For the same molecule, the GI50 (PC-3) was > 10 µM (inactive), the GI50 (SK-MEL-2) was > 10 µM (inactive) and the GI50 (SNB-75) was > 10 µM (inactive). For the same molecule, the GI50 (SR) was > 10 µM (inactive), the GI50 (TK-10) was > 10 µM (inactive) and the GI50 (UACC-257) was > 10 µM (inactive). The GI50 (UACC-62) was > 10 µM (inactive).

`CCN(CCCl)c1cccc(NC(=O)c2ccc(C(=O)Nc3cccc(CN(C)C)c3)cc2)c1` was tested, and the GI50 (A498) was 0.136 µM (active), the GI50 (A549) was 0.211 µM (active) and the GI50 (CAKI-1) was 0.302 µM (active). For the same molecule, the GI50 (CCRF-CEM) was 0.027 µM (active), the GI50 (COLO 205) was 0.11 µM (active) and the GI50 (HCC 2998) was 0.123 µM (active). For the same molecule, the GI50 (HL-60) was 0.0292 µM (active), the GI50 (HOP-62) was 0.0641 µM (active) and the GI50 (KM12) was 0.129 µM (active). For the same molecule, the GI50 (MCF7) was 0.0215 µM (active), the GI50 (OVCAR-4) was 0.0344 µM (active) and the GI50 (OVCAR-5) was 1.48 µM (inactive). For the same molecule, the GI50 (PC-3) was 0.044 µM (active), the GI50 (SK-MEL-2) was 0.0301 µM (active) and the GI50 (SNB-75) was 0.207 µM (active). For the same molecule, the GI50 (SR) was 0.037 µM (active), the GI50 (TK-10) was 0.372 µM (active) and the GI50 (UACC-257) was 0.113 µM (active). The GI50 (UACC-62) was 0.0785 µM (active).

For `Cc1ccc(N2C(=O)C(=O)N(/N=C3\C(=O)Nc4ccccc43)C2=S)cc1`, the GI50 (A498) was > 100 µM (inactive), the GI50 (A549) was > 100 µM (inactive) and the GI50 (CAKI-1) was 92.5 µM (inactive). The GI50 (CCRF-CEM) was 7.96 µM (inactive), the GI50 (COLO 205) was 42 µM (inactive) and the GI50 (EKVX) was > 100 µM (inactive). The GI50 (HCC 2998) was 93.5 µM (inactive), the GI50 (HL-60) was 0.0998 µM (active) and the GI50 (HOP-62) was > 100 µM (inactive). The GI50 (KM12) was 65.8 µM (inactive), the GI50 (MCF7) was 43.2 µM (inactive) and the GI50 (OVCAR-5) was > 100 µM (inactive). For the same molecule, the GI50 (PC-3) was 39.4 µM (inactive), the GI50 (SK-MEL-2) was 30.3 µM (inactive) and the GI50 (SNB-75) was > 100 µM (inactive). For the same molecule, the GI50 (SR) was 38.7 µM (inactive), the GI50 (TK-10) was > 100 µM (inactive) and the GI50 (UACC-257) was > 100 µM (inactive). The GI50 (UACC-62) was 92.9 µM (inactive).

With `CNC(=O)Nn1c(SC)nc2ccccc21` the GI50 (A498) was > 100 µM (inactive), the GI50 (A549) was > 100 µM (inactive) and the GI50 (CAKI-1) was > 100 µM (inactive). For the same molecule, the GI50 (CCRF-CEM) was > 100 µM (inactive), the GI50 (COLO 205) was > 100 µM (inactive) and the GI50 (EKVX) was > 100 µM (inactive). The GI50 (HCC 2998) was > 100 µM (inactive), the GI50 (HL-60) was > 100 µM (inactive) and the GI50 (HOP-62) was > 100 µM (inactive). The GI50 (KM12) was > 100 µM (inactive), the GI50 (MCF7) was > 100 µM (inactive) and the GI50 (OVCAR-4) was > 100 µM (inactive). For the same molecule, the GI50 (OVCAR-5) was > 100 µM (inactive), the GI50 (PC-3) was > 100 µM (inactive) and the GI50 (SK-MEL-2) was > 100 µM (inactive). For the same molecule, the GI50 (SR) was > 100 µM (inactive), the GI50 (TK-10) was > 100 µM (inactive) and the GI50 (UACC-257) was > 100 µM (inactive). For the same molecule, the GI50 (UACC-62) was > 100 µM (inactive).

For `O=Cc1ccc(-c2ccc(S(=O)(=O)O)cc2)o1`, the GI50 (A498) was > 100 µM (inactive), the GI50 (A549) was > 100 µM (inactive) and the GI50 (CAKI-1) was > 100 µM (inactive). For the same molecule, the GI50 (CCRF-CEM) was > 10 µM (inactive), the GI50 (COLO 205) was > 100 µM (inactive) and the GI50 (EKVX) was > 100 µM (inactive). The GI50 (HCC 2998) was > 100 µM (inactive), the GI50 (HL-60) was > 100 µM (inactive) and the GI50 (KM12) was > 100 µM (inactive). For the same molecule, the GI50 (MCF7) was > 100 µM (inactive), the GI50 (OVCAR-5) was > 100 µM (inactive) and the GI50 (PC-3) was > 100 µM (inactive). The GI50 (SK-MEL-2) was > 100 µM (inactive), the GI50 (SR) was > 100 µM (inactive) and the GI50 (TK-10) was > 100 µM (inactive). For the same molecule, the GI50 (UACC-257) was > 100 µM (inactive) and the GI50 (UACC-62) was > 100 µM (inactive).
